Experimental findings from patent US8206732B2, “Pyrithione biocides enhanced by silver, copper, or zinc ions” (Arch Chemicals, Inc., priority 1999, dated 2012) are described below.

Where only a bound is given, the exact number is not on record here.

Holding throughout (format): cell-based
The test system of assay [1] is Staphylococcus aureus 27217. Nature of the assay: Checkerboard MIC test, pyrithiones with silver salts. As to conditions: silver ion alone or in the inhibitory mixture; TSB pH 7.3, 35° C., 1 to 2 days.
For assay [2], the system named is seven cultures of bacteria. Nature of the assay: Challenge test in soluble oil metalworking fluid, bacteria (Example 6). The settings on record: soluble oil MWF, 10 ppm Zn, 100 ppm NaPT, 50 ppm ZPT or 50 ppm CuPT as in column head.
Assay [3] has as its system Pseudomonas aeruginosa ATCC 9027. Nature of the assay: MIC in Tryptic Soy Broth, microtiter (Example 1). The settings on record: TSB, 28° C., incubated 5-6 days; single agent (NaPT without Cu).
Assay [4] relates to Aspergillus niger ATCC 6275. Nature of the assay: MIC in Tryptic Soy Broth, microtiter (Example 1).
Another assay concerns two cultures of fungi. Nature of the assay: Challenge test in soluble oil metalworking fluid, fungi (Example 6). The settings on record: soluble oil MWF, 10 ppm Zn, 100 ppm NaPT, 50 ppm ZPT or 50 ppm CuPT as in column head.
Assay [5] relates to Pseudomonas aeruginosa NCIMB 6749. The experiment in a line: Zone of inhibition test (paper disc on TSA). As to conditions: 6.5 mm discs; 0.135% pyrithione, 0.1% ZnCl2 or both; 28° C., 24 hr.
Assay [6] deals with Staphylococcus aureus ATCC 27217. The experiment in a line: Zone of inhibition test (paper disc on TSA). As to conditions: 6.5 mm discs; 0.135% pyrithione, 0.1% ZnCl2 or both; 28° C., 24 hr.
Assay [7] deals with Escherichia coli ATCC 10536. The experiment in a line: Zone of inhibition test (paper disc on TSA). The settings on record: 6.5 mm discs; 0.135% pyrithione, 0.1% ZnCl2 or both; 28° C., 24 hr.
Another assay relates to Fusarium sp. Nature of the assay: Checkerboard MIC test, pyrithiones with zinc salts. The settings on record: pyrithione alone or pyrithione concentration in the inhibitory mixture; TSB, 28 C, 5 days. The procedure: Mixtures of pyrithione and zinc or silver in various proportions were tested for relative efficacy by a modification of the procedure described by Dougherty, et al.
Equal volumes of bacteria (10^6 cells/ml) or fungi (10^5 spores/ml) were added to each microtiter plate well. The plates were incubated at 28 C for 3 days (bacteria) or 5 days (fungi), and the minimum inhibitory concentration (MIC) of biocide was determined. The Fractional Inhibitory Concentration (FIC=concentration of biocide in an inhibitory mixture divided by the MIC of the pure biocide) was determined, and the FIC Index (sum of the two FIC's) was calculated. The type of interaction was categorized according to the magnitude of the Index: Synergistic (<1), Additive (1), or Antagonistic (>1).

The test system of assay [8] is Pseudomonas aeruginosa NCIMB 6749. The experiment in a line: Checkerboard MIC test, pyrithiones with zinc salts. The settings on record: pyrithione alone or pyrithione concentration in the inhibitory mixture; TSB, 28 C, 3 days.
The test system of assay [9] is Staphylococcus aureus ATCC 27217. The experiment in a line: Checkerboard MIC test, pyrithiones with zinc salts. As to conditions: pyrithione alone or pyrithione concentration in the inhibitory mixture; TSB, 28 C, 3 days.

`[Ag+].[Ag+].[O-2]` [Ag2O]: the “MIC Ag^+1 Ion” value in [1] came to 29.8 ppm.

`On1ccccc1=S.On1ccccc1=S.[Cu]` [CuPT2, copper pyrithione]: the “BACTERIA (cfu/ml)” value in assay [2] (DAY 0) is 3.2 × 10^7 cfu/ml; in assay [2] (DAY 6) it was 1.5 × 10^7 cfu/ml; in assay [2] (DAY 13) it was 9.7 × 10^6 cfu/ml; in assay [2] (DAY 20), 1.9 × 10^6 cfu/ml. The MIC in assay [3] is more than 1024 ppm; in [4] (TSB, 28° C., incubated 7-8 days, single agent (NaPT without Cu)) it was 16 ppm. For the same molecule, the “molar MIC” value in assay [4] (Aspergillus niger) was 51 µM. The “FUNGI (cfu/ml)” value is 2.4 × 10^5 cfu/ml in the assay with two cultures of fungi (DAY 0), 1000 cfu/ml in the assay on two cultures of fungi (DAY 6), 680 cfu/ml in the assay with two cultures of fungi (DAY 13) and 370 cfu/ml in the assay with two cultures of fungi (DAY 20).

Consider `[Cl-].[Cl-].[Zn+2]` [ZnCl2], for which the “Zone of Inhibition” value in assay [5], in assay [6] and in assay [7] was 0 mm in each case.

Turning to `O.O.O.O=S(=O)([O-])[O-].[Mg+2].[O-][n+]1ccccc1SSc1cccc[n+]1[O-]` [MDS, MgSO4.3H2O adduct of 2,2′-dithiopyridine-1,1′-dioxide], the “Zone of Inhibition” value was found to be 0 mm in assay [5], 28 mm in assay [6] and 31 mm in assay [7]. The figures for the “MIC Pyrithione” value (in the assay with Fusarium sp.; in assay [8]; in [9]) were more than 1843 ppm, 1024 ppm and 8 ppm, respectively.
